In patent US20240208953A1, “"Cyclopenta[c]pyrrol Negative Allosteric Modulators of NR2B"” (Novartis AG, priority 2021, published 2024):

Columns and labels:
P-glycoprotein (P-gp) = P-glycoprotein (P-gp) (Homo sapiens (Human), UniProt P08183); experiment: MDCK-MDR1 permeability / efflux assay; format: in vitro ADME; settings: dog, MDCK-MDR1, pH 7.4, efflux ratio, read-out: MDCK-MDR1 ER
Procedure: Example 4. Experimental Measurement of Efflux with MDCK-MDR1 Protocol
Cell Culture. MDCK-MDR1 cells were cultured at 37° C. under a 5% CO2 atmosphere, at 95% relative humidity in DMEM containing 10% FBS, penicillin-streptomycin (100 μg/mL), and 2 mM Ala-Gln. Cells were passaged every 3-4 days. For assay purposes, cells were seeded at a density of approximately 265,000 cells/cm^2 of a 96-well Transwell plate (Corning Life Sciences, Acton, MA) and cultured in the same media noted above for a period of 4 days.
Assay. The determination of the apparent permeability (Papp) was performed in both the A→B (apical to basal) and B→A (basal to apical) directions where each compound was assayed in triplicate. The zwitterion bestatin, a poorly permeably compound, was used as marker of monolayer integrity. To initiate the assay, media was aspirated, and the cells and basal chambers were washed three times with Hank's Balanced Salt Solution (HBSS) containing 10 mM HEPES (pH 7.4). Compound test solutions were prepared in triplicate in HBSS containing 10 mM HEPES (pH 7.4) and 0.02% bovine serum albumin (BSA) to a final concentration of 10 μM and centrifuged for 2 min at 4000×g, then applied to the donor compartment at time zero. Additionally, at time zero, a 37° C. solution without test articles (HBSS+10 mM HEPES (pH 7.4) plus 0.02% BSA) was added to the receiver chamber of the Transwell plate. A time zero sample of the donor solution was also sampled for further analysis. The assay was conducted for a period of 120 min at 37° C. without shaking. At the time of assay termination, samples were taken from each donor compartment, and each acceptor compartment of the Transwell plate. To each of the 0 and 120 min samples was added an internal standard solution containing glyburide in water:acetonitrile, 50:50 (v:v). Concentration curves were prepared using a Labcyte Echo in the same matrix noted above. Samples and concentration curve samples were centrifuged for 10 min at 4000×g and subsequently analyzed by mass spectroscopy.
Mass Spectroscopy. Assay samples were loaded onto a RapidFire C4 cartridge by means of a RapidFire autosampler (Agilent, Santa Clara, CA). […] Mass spectroscopy was performed using an AB Sciex AP15500 (Sciex, Frammingham, MA) equipped with a turbo ion spray source. The analyte concentration was calculated from the chromatographic peak area ratio of analyte to internal standard (glibenclamide, m/z 494→169), using Multiquant software V3.0 (Sciex, Framingham, MA).
Calculations. Papp values were determined as
Percent recovery values were determined as:
where VA is the volume of the acceptor (mL), S is the surface area of the membrane, D0 is the donor solution concentration at t=0, D120 is the donor solution concentration at t=120, A120 is the acceptor solution concentration at t=120, and t=time (seconds).
The suitability of a compound for oral dosing and/or for use as a CNS therapeutic is usually conducted by MDCK-MDR1 permeability assay to investigate its drug efflux potential mediated by P-glycoprotein (P-gp). MDCK-MDR1 permeability has been used as a predictor of blood brain barrier permeability in terms of efflux ratio (ER).

NR2B = NR2B (Rattus norvegicus (Rat), UniProt Q00960); experiment: NR2B rat cortical neuron calcium influx assay; format: cell-based; settings: rat cortical neurons, glutamate and glycine stimulated calcium influx
Chain of NR2B (Q00960 27-1482, other chains not shown): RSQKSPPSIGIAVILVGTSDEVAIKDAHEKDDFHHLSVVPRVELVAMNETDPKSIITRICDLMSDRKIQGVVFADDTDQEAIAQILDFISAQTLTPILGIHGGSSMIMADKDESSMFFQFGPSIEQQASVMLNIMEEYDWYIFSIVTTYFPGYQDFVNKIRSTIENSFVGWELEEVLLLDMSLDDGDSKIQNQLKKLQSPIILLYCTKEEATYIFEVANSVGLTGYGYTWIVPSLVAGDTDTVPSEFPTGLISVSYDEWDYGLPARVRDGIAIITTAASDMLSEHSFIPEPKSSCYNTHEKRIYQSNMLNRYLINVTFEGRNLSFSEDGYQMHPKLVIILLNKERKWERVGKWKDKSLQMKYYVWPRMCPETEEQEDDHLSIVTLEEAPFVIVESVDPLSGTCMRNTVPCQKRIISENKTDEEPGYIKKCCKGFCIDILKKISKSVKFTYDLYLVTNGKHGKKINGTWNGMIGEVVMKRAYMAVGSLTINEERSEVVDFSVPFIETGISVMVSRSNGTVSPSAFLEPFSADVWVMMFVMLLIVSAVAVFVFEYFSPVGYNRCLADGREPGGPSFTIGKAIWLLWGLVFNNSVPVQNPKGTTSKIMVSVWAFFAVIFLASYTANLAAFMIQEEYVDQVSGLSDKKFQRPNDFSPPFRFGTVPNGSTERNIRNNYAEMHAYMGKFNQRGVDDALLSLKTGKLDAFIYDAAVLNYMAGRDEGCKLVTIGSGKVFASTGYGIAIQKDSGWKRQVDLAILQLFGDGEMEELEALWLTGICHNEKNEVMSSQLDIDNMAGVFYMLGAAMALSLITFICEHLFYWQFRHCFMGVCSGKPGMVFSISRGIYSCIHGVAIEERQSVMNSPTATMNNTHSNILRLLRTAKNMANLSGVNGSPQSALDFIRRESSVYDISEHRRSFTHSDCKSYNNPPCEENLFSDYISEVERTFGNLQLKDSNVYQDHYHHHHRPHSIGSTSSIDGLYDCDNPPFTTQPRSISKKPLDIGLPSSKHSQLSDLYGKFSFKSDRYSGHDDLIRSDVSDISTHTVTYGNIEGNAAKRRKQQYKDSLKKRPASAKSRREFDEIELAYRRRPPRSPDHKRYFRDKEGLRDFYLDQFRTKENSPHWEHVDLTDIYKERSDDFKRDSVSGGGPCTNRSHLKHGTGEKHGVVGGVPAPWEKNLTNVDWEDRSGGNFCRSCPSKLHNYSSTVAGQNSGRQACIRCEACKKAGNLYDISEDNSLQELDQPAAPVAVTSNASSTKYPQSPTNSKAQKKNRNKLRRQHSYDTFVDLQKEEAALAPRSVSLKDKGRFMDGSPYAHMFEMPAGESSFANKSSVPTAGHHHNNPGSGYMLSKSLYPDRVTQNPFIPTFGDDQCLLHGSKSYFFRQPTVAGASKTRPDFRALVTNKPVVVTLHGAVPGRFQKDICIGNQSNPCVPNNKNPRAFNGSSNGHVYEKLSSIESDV
Text: Example 1: NR2B Rat Cortical Neuron Calcium Influx Assay Protocol
Embryonic day 18 timed pregnant Sprague Dawley rats were euthanized according to Institutional Animal Care and Use Committee (IACUC) protocol. After cutting medially through the skin and exposing the uterus and embryos, fetuses were removed and placed in cold Hibernate medium. Each embryo's brain was extracted and cerebral cortices were isolated by removing the midbrain and meninges. The dissected cortices were then dissociated into the neurons using papain dissociation system (Worthington Biochemical Corporation) according the manufacturer's protocol.
Dissociated neurons were counted and plated into 384-well poly-D-lysine coated plates (Corning® BioCoat™) at a density of 20,000 cells/well in 30 μL of Neurobasal/B27 complete medium. Neurons were cultured at 37° C. for 2 days. On the assay day, medium was removed and cells were incubated with 20 μL/well of calcium dye (Calcium 6 Assay Kit, Molecular Devices) suspended in HBSS with 1.8 mM Ca^2+ (Ca-HBSS) according to the manufacturer's instruction.
Compounds of interest from 10 mM stock were serially diluted into 3× of desired concentrations in 1.8 mM Ca-HBSS, and 10 μL were added to the wells. Compound and the neurons were incubated at 37° C. for 2 hours in the dark.
On FDSS7000EX (Hamamatsu Photonics), a fluorescence measuring instrument, 10 μL of 4× ligand solution containing glutamate and glycine made in 1.8 mM Ca^2+-HBSS were added to each well. The fluorescent signals were collected before and after the addition of ligands for a total of 2 minutes. The data were converted to a ratio of the peak fluorescence to the fluorescence at the beginning of the measurement.
Each data point was measured in duplicates. Dose response curves were used to identify IC50 and maximal inhibition values. IC50 represents the concentration in μM of compound at which there is a half-maximal compound effect. Maximal inhibition of a compound is expressed as a percent of the highest inhibition of activity over a no compound control.

Chain of P-glycoprotein (P-gp) (P08183 whole entry): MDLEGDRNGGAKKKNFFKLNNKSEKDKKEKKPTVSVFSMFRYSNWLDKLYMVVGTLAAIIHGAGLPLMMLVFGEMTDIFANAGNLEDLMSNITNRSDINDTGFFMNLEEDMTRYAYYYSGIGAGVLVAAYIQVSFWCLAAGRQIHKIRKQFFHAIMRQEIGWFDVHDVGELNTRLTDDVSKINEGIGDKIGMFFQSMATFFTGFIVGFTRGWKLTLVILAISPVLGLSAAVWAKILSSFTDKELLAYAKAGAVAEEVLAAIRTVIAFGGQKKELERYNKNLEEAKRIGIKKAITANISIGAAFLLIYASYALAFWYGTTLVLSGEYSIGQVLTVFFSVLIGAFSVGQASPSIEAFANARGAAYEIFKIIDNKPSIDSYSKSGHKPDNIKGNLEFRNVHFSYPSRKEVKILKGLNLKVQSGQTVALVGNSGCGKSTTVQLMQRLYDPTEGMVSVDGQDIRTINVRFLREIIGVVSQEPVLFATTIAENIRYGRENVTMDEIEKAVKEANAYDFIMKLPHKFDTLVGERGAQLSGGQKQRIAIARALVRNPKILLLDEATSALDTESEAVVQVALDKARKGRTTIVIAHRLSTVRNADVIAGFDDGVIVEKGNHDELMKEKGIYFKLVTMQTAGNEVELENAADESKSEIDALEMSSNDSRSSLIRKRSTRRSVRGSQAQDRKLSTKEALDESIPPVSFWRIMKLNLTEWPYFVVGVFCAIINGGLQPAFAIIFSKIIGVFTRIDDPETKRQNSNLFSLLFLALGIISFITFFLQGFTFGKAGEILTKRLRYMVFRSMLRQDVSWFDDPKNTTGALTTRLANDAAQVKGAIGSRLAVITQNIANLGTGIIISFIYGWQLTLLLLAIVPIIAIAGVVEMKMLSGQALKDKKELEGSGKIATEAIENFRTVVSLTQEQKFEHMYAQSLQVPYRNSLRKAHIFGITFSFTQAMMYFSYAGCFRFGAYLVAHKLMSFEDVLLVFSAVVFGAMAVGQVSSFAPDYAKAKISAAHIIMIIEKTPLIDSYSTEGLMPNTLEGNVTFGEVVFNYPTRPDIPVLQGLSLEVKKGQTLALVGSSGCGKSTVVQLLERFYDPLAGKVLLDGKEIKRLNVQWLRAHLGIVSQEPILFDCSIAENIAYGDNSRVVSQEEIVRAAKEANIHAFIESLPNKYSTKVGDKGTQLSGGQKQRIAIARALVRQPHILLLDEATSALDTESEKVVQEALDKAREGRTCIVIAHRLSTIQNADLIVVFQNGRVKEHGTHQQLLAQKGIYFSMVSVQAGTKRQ

How did the efflux ratio at 120 min, 10 μM (P-glycoprotein (P-gp)) turn out when O[C@@H](CN1C[C@H]2C[C@H](Oc3ccccc3F)[C@H](O)[C@@]2(O)C1)c1cnc2[nH]ccc2c1 (single isomer, unassigned) [Example 44A] was run?
The efflux ratio at 120 min, 10 μM was 6.09.

What about the IC50 (NR2B) of the same compound?
The IC50 was 170 nM.

How did the efflux ratio at 120 min, 10 μM (P-glycoprotein (P-gp)) turn out when O=C1Nc2c(cc([C@@H](O)CN3C[C@H]4C[C@H](Oc5ccccc5)C[C@@]4(O)C3)c(F)c2F)CO1 (single isomer, unassigned) [Example 38A] was run?
Its efflux ratio at 120 min, 10 μM is 1.58.

And the IC50 (NR2B)?
The IC50 was 5.1 nM.

O=C1CCc2cc([C@H](O)CN3C[C@@H]4C[C@@H](Oc5cc(F)ccc5F)C[C@]4(O)C3)ccc2N1 (single isomer, unassigned) [Example 26D] was tested. Which efflux ratio at 120 min, 10 μM (P-glycoprotein (P-gp)) did it give?
The efflux ratio at 120 min, 10 μM was 2.52.

And the IC50 (NR2B)?
Its IC50 is 1.9 nM.

For O=C1CCc2cc([C@H](O)CN3C[C@@H]4C[C@@H](Oc5ccccc5F)C[C@]4(O)C3)cc(F)c2N1 (single isomer, unassigned) [Example 6D], which efflux ratio at 120 min, 10 μM (P-glycoprotein (P-gp)) is on record?
The efflux ratio at 120 min, 10 μM was 1.29.

What about the IC50 (NR2B) of the same compound?
Its IC50 is 2.4 nM.

With O=C1CCc2cc([C@@H](O)CN3C[C@H]4C[C@H](Oc5ccccc5)[C@H](O)[C@@]4(O)C3)ccc2N1 [Example 4A, 6-((R)-2-((3aS,4S,5S,6aR)-3a,4-dihydroxy-5-phenoxyhexahydrocyclopenta[c]pyrrol-2(1H)-yl)-1-hydroxyethyl)-3,4-dihydroquinolin-2(1H)-one] as the compound, how does the efflux ratio at 120 min, 10 μM (P-glycoprotein (P-gp)) read?
The efflux ratio at 120 min, 10 μM was 6.99.

What about the IC50 (NR2B) of the same compound?
Its IC50 is 13 nM.

With O=c1[nH]c2ccc([C@@H](O)CN3C[C@H]4C[C@H](Oc5ccccc5F)C[C@@]4(O)C3)cc2s1 (single isomer, unassigned) [Example 18A] as the compound, how does the efflux ratio at 120 min, 10 μM (P-glycoprotein (P-gp)) read?
The efflux ratio at 120 min, 10 μM was 1.61.

What about the IC50 (NR2B) of the same compound?
The IC50 was under 0.0021 nM.

Which results are given for O=C1COc2cc([C@H](O)CN3C[C@H]4C[C@H](Oc5ccccc5)C[C@@]4(O)C3)cc(F)c2N1 (single isomer, unassigned) [Example 13B]?
efflux ratio at 120 min, 10 μM (P-glycoprotein (P-gp)): 1.11; IC50 (NR2B): 57 nM

O=C1CCc2cc([C@@H](O)CN3C[C@@H]4C[C@@H](Oc5ccc(F)cc5)C[C@]4(O)C3)ccc2N1 (single isomer, unassigned) [Example 22C] was tested. Which efflux ratio at 120 min, 10 μM (P-glycoprotein (P-gp)) did it give?
The efflux ratio at 120 min, 10 μM was 1.43.

And the IC50 (NR2B)?
The IC50 was 1.4 nM.

O=C1Nc2ccc([C@H](O)CN3C[C@H]4C[C@H](Oc5ccccc5F)C[C@@]4(O)C3)cc2CS1 (single isomer, unassigned) [Example 15B] was tested. Which efflux ratio at 120 min, 10 μM (P-glycoprotein (P-gp)) did it give?
Its efflux ratio at 120 min, 10 μM is 1.92.

And the IC50 (NR2B)?
The IC50 was 0.0019 nM.

Which efflux ratio at 120 min, 10 μM (P-glycoprotein (P-gp)) does the source give for O=C1Nc2ccc([C@@H](O)CN3C[C@H]4C[C@H](Oc5ccccc5F)C[C@@]4(O)C3)cc2CS1 (single isomer, unassigned) [Example 15A] here?
Its efflux ratio at 120 min, 10 μM is 1.6.

What about the IC50 (NR2B) of the same compound?
Its IC50 is 0.0015 nM.

Which results are given for O=C1CCc2cc([C@@H](O)CN3C[C@@H]4C[C@@H](Oc5ccc(F)cc5F)C[C@]4(O)C3)ccc2N1 (single isomer, unassigned) [Example 25C]?
efflux ratio at 120 min, 10 μM (P-glycoprotein (P-gp)): 2.74; IC50 (NR2B): 0.24 nM

For O=C1CCc2cc([C@H](O)CN3C[C@H]4C[C@H](Oc5ccccc5)C[C@@]4(O)C3)c(F)cc2N1 (single isomer, unassigned) [Example 10B], which efflux ratio at 120 min, 10 μM (P-glycoprotein (P-gp)) is on record?
Its efflux ratio at 120 min, 10 μM is 2.49.

And the IC50 (NR2B)?
The IC50 was 0.56 nM.

How did the efflux ratio at 120 min, 10 μM (P-glycoprotein (P-gp)) turn out when O=C1COc2cc([C@@H](O)CN3C[C@H]4C[C@H](Oc5ccccc5)C[C@@]4(O)C3)cc(F)c2N1 (single isomer, unassigned) [Example 13A] was run?
Its efflux ratio at 120 min, 10 μM is 1.22.

What about the IC50 (NR2B) of the same compound?
Its IC50 is 86 nM.

Which efflux ratio at 120 min, 10 μM (P-glycoprotein (P-gp)) does the source give for O=C1Nc2c(F)cc([C@H](O)CN3C[C@H]4C[C@H](Oc5ccccc5F)C[C@@]4(O)C3)cc2CO1 (single isomer, unassigned) [Example 35B] here?
The efflux ratio at 120 min, 10 μM was 2.04.

What about the IC50 (NR2B) of the same compound?
Its IC50 is 1.3 nM.

For O=C1Nc2c(F)cc([C@@H](O)CN3C[C@H]4C[C@H](Oc5ccccc5)C[C@@]4(O)C3)c(F)c2CO1 (single isomer, unassigned) [Example 37A], which efflux ratio at 120 min, 10 μM (P-glycoprotein (P-gp)) is on record?
The efflux ratio at 120 min, 10 μM was 1.15.

And the IC50 (NR2B)?
Its IC50 is 33 nM.

What does the source list for O=C1CCc2cc([C@@H](O)CN3C[C@H]4C[C@H](Oc5ccccc5F)C[C@@]4(O)C3)ccc2N1 [Example 5A, 6-((R)-2-((3aS,5S,6aR)-5-(2-fluorophenoxy)-3a-hydroxyhexahydrocyclopenta[c]pyrrol-2(1H)-yl)-1-hydroxyethyl)-3,4-dihydroquinolin-2(1H)-one]?
efflux ratio at 120 min, 10 μM (P-glycoprotein (P-gp)): 1.05; IC50 (NR2B): 38 nM
